Source: US8343536B2, “Biofilm-inhibiting medical products” (Cook Biotech Incorporated, priority 2007, dated 2013)

What was measured:
Format in all cases: cell-based
[1] = test system: A. niger(ATCC #16404); assay: Anti-fungal zone-of-inhibition / growth inhibition, coated SIS discs (Example 5); conditions: 100 μg/cm^2 on SIS disc
Experimental: (§1) BisEDT was obtained from Microbion, Inc. as previously described. Small intestinal submucosa (SIS) was obtained and processed into 4-layer lyophilized sheets as described in Example 1. The sheets were subsequently cut into 15 mm discs (˜1.76 cm^2) using a disc punch. BisEDT was resuspended in dimethyl sulfoxide (DMSO) and diluted to appropriate concentrations for coating. Discs were coated with the BisEDT solution at a final concentration of 3.5 μg/μl using 50 μl of the solution per disc for a final concentration of 100 μg/cm^2. The discs were subsequently placed in a lyophilizer overnight to remove the DMSO solvent. A total of 6 coated discs were made—3 each for the two microorganisms investigated. These were compared against 3 uncoated controls discs cut from the same lot of SIS for each microorganism. C. albicans (ATCC #10231) and A. niger(ATCC #16404) were plated on Rose Bengal Chloramphenicol (RBC) in Petri dishes.
(§2) The experiment consisted of a total of […] (3 BisEDT 100 μg/cm^2 coated, 3 uncoated controls) for each fungus. A lawn of either C. albicans or A. niger was swabbed onto the RBC plates. Each disc was rehydrated in sterile saline for ˜5 minutes then placed approximately in the center of the plate. Plates were incubated inverted for ˜48 hours for C. albicans or 5 and 8 days for A. niger at which time pictures were taken with a digital camera. Zones-of-inhibition or growth inhibition was compared visually between groups.

[2] = test system: C. albicans (ATCC #10231); assay: as above; conditions: 100 μg/cm^2 on SIS disc, ~48 hours
Experimental: as §1, §2

[3] = test system: S. aureus (ATCC #25983); assay: Zone-of-inhibition measured by image analysis, coated SIS discs (Example 2); conditions: 10 μg/cm^2 on SIS disc, 24 hours, n=3
Experimental: (§3) BisEDT (Molar ratio 1:1.5), BisBAL (1:1.5), and BisERY (1:1.5) (50 mg each) were obtained from Microbion, Inc. Small intestinal submucosa (SIS) was obtained and processed into 4-layer lyophilized sheets as described in Example 1. The sheets were subsequently cut into 15 mm discs (˜1.76 cm^2) using a disc punch. Bismuth thiols were resuspended in dimethyl sulfoxide (DMSO) and diluted to 0.35 μg/μl for coating. Discs were coated with the bismuth thiol solutions 50 μl of the appropriate solution per disc for a final concentration 10 μg/cm^2 (0.35 μg/μl*50 μl=17.5 μg/1.76 cm^2=10 μg/cm^2). The discs were subsequently placed in a lyophilizer overnight to remove the DMSO solvent. Control discs were prepared using 50 μl of DMSO without a bismuth thiol preparation. 3 bacteria were used for this experiment: S. aureus (ATCC #25983), P. aeruginosa (ATCC #27853), and E. coli (ATCC #25922). Bacteria was grown in Tryptic Soy Broth for 16-24 hours before placing a lawn on Tryptic Soy Agar in 100 mm Petri dishes.
(§4) Thirty samples were tested in total (3 bismuth thiol preparations @ n=3→9+1 control=10×3 bacteria=30). A lawn of one of the three bacteria investigated was swabbed onto the Tryptic Soy Agar. The bismuth thiol coated disc was rehydrated for ˜5 minutes in sterile saline and placed approximately in the center of the plate. Plates were incubated inverted for 24 hours at which time pictures were taken with a digital camera. Zones-of-inhibition were measured using image analysis software (Spot RT) by determining the distance of bacterial growth inhibition from the disc edge.

[4] = test system: E. coli (ATCC #25922); assay: as above; conditions: 10 μg/cm^2 on SIS disc, 24 hours, n=3
Experimental: as §3, §4

bismuth-1,2-ethanedithiol [BisEDT]
Mold growth on coated disc ([1]; 5 days): able to grow up to the disc edge but not on the BisEDT coated disc | Mold growth on coated disc ([1]; eight day time point): still unable to grow on the BisEDT coated discs | Zone-of-inhibition from the disc edge [2]: ~1 mm | Zone-of-inhibition, distance of bacterial growth inhibition from the disc edge [3]: 6.83 | Zone-of-inhibition, distance of bacterial growth inhibition from the disc edge [4]: 1.28
